Assay results taken from patent US11234954B2, “Low-dose doxepin for treatment of sleep disorders in elderly patients” (Pernix Sleep, Inc., priority 2006, dated 2022).
Where two headings read alike, the source gives them in different places.

Legend:
[1] = system: patients aged 65 years or older with primary sleep maintenance insomnia; test: Subjective sleep data, elderly crossover study (Example 1); type: in vivo, human; conditions: n = 71
Description: “sWASO” refers to subjective wake after sleep onset (WASO).
“sTST” refers to subjective total sleep time.
“sNAASO” refers to subjective NAASO.
“LSO” refers to “latency to sleep onset, typically expressed in minutes.
The patients report subjected data, which were consistent with the PSG data.

[2] = in vivo; cited from earlier work
[3] = system: Adult Patients (Ages 18-64) with Primary Insomnia; test: PSG efficacy, four-period crossover dose-response study in adults 18-64 (Example 3); type: in vivo, human; conditions: for LPS, Mean / SE, Mean / TST, Mean / WASO, Mean / WTAS, Mean: Per-Protocol N = 61; for WTDS, observed mean (±SD) (primary efficacy variable): WTDS typically expressed in minutes
Description: (§1) The primary and secondary efficacy assessments were as described above in Example 1.

[4] = system: primary elderly insomnia patients with sleep maintenance difficulties; type: in vivo, human
Protocol: Subjects were females and males, 65 years of age or older, with at least a 3-month history of primary insomnia (as defined in the Diagnostic and Statistical Manual of Mental Disorders, Fourth Edition, Text Revision), who reported experiencing at least 60 minutes of Wake After Sleep Onset (WASO), at least 30 minutes of Latency to Sleep Onset (LSO), and no more than 6.5 hours of Total Sleep Time (TST) on at least 4 of 7 consecutive nights prior to PSG Screening.
Primary Efficacy Variable: The primary efficacy variable was WASO on Night 1.
Additional PSG Variables: Additional efficacy variables assessed on each PSG recording night during the Double-blind Treatment Period were WASO (Night 15, Night 29, Night 57, and Night 85); WTDS; TST; Sleep Efficiency (SE) overall, by third of the night, the last quarter of the night, and hour of the night; LPS; Latency to Stage 2 Sleep; Number of Awakenings After Sleep Onset (NAASO) overall and by hour; Total Wake Time (TWT) overall and by hour; Wake Time After Sleep (WTAS); and sleep architecture (including percentage and minutes of Stage 1, 2, and 3-4 sleep; percentage and minutes of rapid eye movement [REM] and non-REM sleep; and Latency to REM Sleep.)

[5] = system: patients aged 65 years or older with primary sleep maintenance insomnia; test: Adverse events and safety, elderly crossover study (Example 1); type: in vivo, human
Description: All randomized patients who received at least one dose of double-blind study medication were included in the safety analyses, which were based on observed data.
The adverse events are arranged by system organ class.

[6] = system: Adult Patients (Ages 18-64) with Primary Insomnia; test: Subjective sleep parameters, adult crossover study (Example 3); type: in vivo, human; conditions: Per-Protocol N = 61
Description: as §1

In the case of `CN(C)CCC=C1c2ccccc2COc2ccccc21` (mixture of isomers) [Doxepin], the “LSO, Mean (SD)” value ([1]; 1 mg) is reported as 42.3 (32.1), the “Sleep Quality, Mean (SD)” value ([1]; 1 mg) is reported as 0.8 (1.0) and the “sNAASO, Mean (SD)” value ([1]; 1 mg) is reported as 3.2 (2.1). The “sTST, Mean (SD)” value ([1]; 1 mg) was 355.7 (63.1), the “sWASO, Mean (SD)” value ([1]; 1 mg) was 74.3 (55.2) and the “LSO, Mean (SD)” value ([1]; 3 mg) was 42.4 (40.1). The “Sleep Quality, Mean (SD)” value ([1]; 3 mg) was 0.9 (1.0), the “sNAASO, Mean (SD)” value ([1]; 3 mg) was 2.9 (1.7) and the “sTST, Mean (SD)” value ([1]; 3 mg) was 362.4 (64.3). For the same compound, the “sWASO, Mean (SD)” value ([1]; 3 mg) was 72.2 (56.4), the “LSO, Mean (SD)” value ([1]; 6 mg) was 33.9 (24.8) and the “Sleep Quality, Mean (SD)” value ([1]; 6 mg) was 0.8 (1.0). For the same compound, the “sNAASO, Mean (SD)” value ([1]; 6 mg) was 3.0 (1.4), the “sTST, Mean (SD)” value ([1]; 6 mg) was 369.4 (65.3) and the “sWASO, Mean (SD)” value ([1]; 6 mg) was 71.5 (57.4). For the same compound, the mean half-life [2] was 17 h, the “LPS, Mean” value ([3]; 1 mg) was 30.1 min and the “SE, Mean” value ([3]; 1 mg) was 84.7%. For the same compound, the “TST, Mean” value ([3]; 1 mg) was 406.5 min, the “WASO, Mean” value ([3]; 1 mg) was 47.3 min and the “WTAS, Mean” value ([3]; 1 mg) was 4.1 min. For the same compound, the “WTDS, observed mean (±SD) (primary efficacy variable)” value (“WTDS, observed mean (±SD)” below) ([3]; 1 mg) was 43.2 (28.2), the “LPS, Mean” value ([3]; 3 mg) was 30.8 min and the “SE, Mean” value ([3]; 3 mg) was 86.5%. The “TST, Mean” value ([3]; 3 mg) was 415.2 min, the “WASO, Mean” value ([3]; 3 mg) was 38.6 min and the “WTAS, Mean” value ([3]; 3 mg) was 5.2 min. For the same compound, the “WTDS, observed mean (±SD)” value ([3]; 3 mg) was 33.4 (21.87), the “LPS, Mean” value ([3]; 6 mg) was 27.9 min and the “SE, Mean” value ([3]; 6 mg) was 86.9%. The “TST, Mean” value ([3]; 6 mg) was 417.2 min, the “WASO, Mean” value ([3]; 6 mg) was 38.8 min and the “WTAS, Mean” value ([3]; 6 mg) was 2.5 min. For the same compound, the “WTDS, observed mean (±SD)” value ([3]; 6 mg) was 35.3 (25.17), the “LS mean WASO shorter compared with the placebo group” value ([4]; Night 1, 1 mg) was 17.8 min and the “LPS, mean (SD)” value ([4]; Night 1, 1 mg, ITT N = 77) was 38.8 (29.58) minutes. For the same compound, the “SE Overall, mean (SD)” value ([4]; Night 1, 1 mg, ITT N = 77) was 74.8 (11.05) %, the “TST, mean (SD)” value ([4]; Night 1, 1 mg, ITT N = 77) was 359.1 (53.05) minutes and the “WTAS, mean (SD)” value ([4]; Night 1, 1 mg, ITT N = 77) was 8.9 (18.84) minutes. The “WASO, Diff. of LS Mean versus placebo” value ([4]; Night 1, 1 mg, ITT n = 77) was -17.8 min, the “WASO, Mean (Primary Efficacy Variable)” value ([4]; Night 1, 1 mg, ITT n = 77) was 91.8 min and the “LS mean WASO shorter compared with the placebo group” value ([4]; Night 1, 3 mg) was 33.8 min. For the same compound, the “LPS, mean (SD)” value ([4]; Night 1, 3 mg, ITT N = 82) was 28.6 (20.53) minutes, the “SE Overall, mean (SD)” value ([4]; Night 1, 3 mg, ITT N = 82) was 79.8 (9.21) % and the “TST, mean (SD)” value ([4]; Night 1, 3 mg, ITT N = 82) was 382.9 (44.23) minutes. For the same compound, the “WTAS, mean (SD)” value ([4]; Night 1, 3 mg, ITT N = 82) was 4.7 (14.61) minutes, the “WASO, Diff. of LS Mean versus placebo” value ([4]; Night 1, 3 mg, ITT n = 82) was -33.8 min and the “WASO, Mean (Primary Efficacy Variable)” value ([4]; Night 1, 3 mg, ITT n = 82) was 74.5 min. The “LPS, mean (SD)” value ([4]; Night 85, 1 mg, ITT N = 77) was 29.0 (26.45) minutes, the “SE Overall, mean (SD)” value ([4]; Night 85, 1 mg, ITT N = 77) was 75.1 (9.83) % and the “TST, mean (SD)” value ([4]; Night 85, 1 mg, ITT N = 77) was 360.5 (47.17) minutes. For the same compound, the “WTAS, mean (SD)” value ([4]; Night 85, 1 mg, ITT N = 77) was 10.8 (21.78) minutes, the “WASO, Diff. of LS Mean versus placebo” value ([4]; Night 85, 1 mg, ITT n = 69) was -14.6 min and the “WASO, Mean” value ([4]; Night 85, 1 mg, ITT n = 69) was 97.0 min. The “LPS, mean (SD)” value ([4]; Night 85, 3 mg, ITT N = 82) was 37.5 (32.74) minutes, the “SE Overall, mean (SD)” value ([4]; Night 85, 3 mg, ITT N = 82) was 77.9 (8.80) % and the “TST, mean (SD)” value ([4]; Night 85, 3 mg, ITT N = 82) was 373.7 (42.24) minutes. For the same compound, the “WTAS, mean (SD)” value ([4]; Night 85, 3 mg, ITT N = 82) was 5.4 (13.20) minutes, the “WASO, Diff. of LS Mean versus placebo” value ([4]; Night 85, 3 mg, ITT n = 74) was -33.2 min and the “WASO, Mean” value ([4]; Night 85, 3 mg, ITT n = 74) was 75.7 min. For the same compound, the “HEADACHE: Number of Events” value ([5]; 1 mg, N = 74) was 0, the “HEADACHE: Number of Patients” value ([5]; 1 mg, N = 74) was 0 (0%) and the “HEADACHE: Number of Events” value ([5]; 3 mg, N = 75) was 0. The “HEADACHE: Number of Patients” value ([5]; 3 mg, N = 75) was 0 (0%), the “HEADACHE: Number of Events” value ([5]; 6 mg, N = 74) was 0 and the “HEADACHE: Number of Patients” value ([5]; 6 mg, N = 74) was 0 (0%). The “LSO, Mean” value ([6]; 1 mg) was 46.9 min, the “sTST, Mean” value ([6]; 1 mg) was 364.2 min and the “sWASO, Mean” value ([6]; 1 mg) was 56.1 min. The “LSO, Mean” value ([6]; 3 mg) was 46.1 min, the “sTST, Mean” value ([6]; 3 mg) was 379.7 min and the “sWASO, Mean” value ([6]; 3 mg) was 50.5 min. The “LSO, Mean” value ([6]; 6 mg) was 44.1 min, the “sTST, Mean” value ([6]; 6 mg) was 383.0 min and the “sWASO, Mean” value ([6]; 6 mg) was 42.1 min.
